Results as given in patent publication US10508120B2, “TYK2 inhibitors and uses thereof” (Nimbus Lakshmi, Inc., priority 2017, dated 2019).

Experiments:
[1] = biological target: human TYK2 (JH2domain-pseudokinase) (Homo sapiens (Human), UniProt P29597); assay: TYK2 JH2 Domain Binding Assay (KINOMEscan)
In short: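 The construct was human TYK2 G556–D888 fused to the NFkB DNA-binding domain and expressed in HEK293 cells; unpurified extract was incubated with compound and liganded beads for 1 hour at room temperature.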

Tyk2 kinase domain (DH1) = Tyk2 kinase domain (DH1) (Homo sapiens (Human), UniProt P29597); assay: Tyk2 Radioactive Kinase Assay; type: biochemical; conditions: compound at 10 μM, ATP 10 μM; for inhibition at 10 µM: read-out: Tyk2 JH1% Inhibition @ 10 μM
In short: (§1)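 Read-out is percent inhibition from a radioactive kinase reaction, measured with compound at 10 μM.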

JAK2 kinase domain (JH1) = JAK2 kinase domain (JH1) (Homo sapiens (Human), UniProt O60674); assay: JAK2 Radioactive Kinase Assay; type: biochemical; conditions: compound at 10 μM, ATP 10 μM; for inhibition at 10 µM: read-out: JAK2 JH1% Inhibition @ 10 μM
In short: as §1

human TYK2 (JH2domain-pseudokinase), sequence (P29597 556-888): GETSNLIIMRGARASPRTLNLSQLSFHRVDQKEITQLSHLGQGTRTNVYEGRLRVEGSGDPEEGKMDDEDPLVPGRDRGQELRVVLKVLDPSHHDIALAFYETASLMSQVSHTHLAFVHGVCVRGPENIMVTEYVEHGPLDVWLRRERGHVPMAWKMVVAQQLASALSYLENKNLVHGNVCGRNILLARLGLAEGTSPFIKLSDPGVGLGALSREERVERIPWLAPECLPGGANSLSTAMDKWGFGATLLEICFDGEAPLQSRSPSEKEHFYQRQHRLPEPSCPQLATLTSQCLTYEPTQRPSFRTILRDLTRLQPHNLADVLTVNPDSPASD
JAK2 kinase domain (JH1), sequence (O60674 849-1124): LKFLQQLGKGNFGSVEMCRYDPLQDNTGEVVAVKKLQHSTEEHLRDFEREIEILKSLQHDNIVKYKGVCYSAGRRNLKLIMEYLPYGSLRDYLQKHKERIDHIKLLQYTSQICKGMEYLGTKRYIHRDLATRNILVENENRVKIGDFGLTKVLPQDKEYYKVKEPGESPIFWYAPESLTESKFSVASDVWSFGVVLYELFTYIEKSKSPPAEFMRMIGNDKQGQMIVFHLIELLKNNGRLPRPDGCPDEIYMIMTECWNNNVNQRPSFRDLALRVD
Tyk2 kinase domain (DH1), sequence (P29597 897-1176): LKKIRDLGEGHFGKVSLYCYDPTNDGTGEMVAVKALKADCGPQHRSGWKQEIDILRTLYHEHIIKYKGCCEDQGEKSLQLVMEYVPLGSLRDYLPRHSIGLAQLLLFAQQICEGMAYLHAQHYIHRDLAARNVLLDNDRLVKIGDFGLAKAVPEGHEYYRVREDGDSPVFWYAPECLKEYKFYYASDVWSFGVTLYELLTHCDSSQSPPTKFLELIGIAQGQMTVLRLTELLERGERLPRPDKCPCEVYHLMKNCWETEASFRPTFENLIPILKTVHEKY

| Structure (SMILES) | Kd [1] | inhibition at 10 µM (Tyk2 kinase domain (DH1)) | inhibition at 10 µM (JAK2 kinase domain (JH1)) | Tyk2 JH1% Inhibition @ 10 μM (Tyk2 kinase domain (DH1)) | JAK2 JH1% Inhibition @ 10 μM (JAK2 kinase domain (JH1)) |
| --- | --- | --- | --- | --- | --- |
| CNc1cc(Nc2cccn([C@@H]3CCCOC3)c2=O)nc2c(C(=O)N[C@H]3[C@@H]4COC[C@@H]43)cnn12 [I-650] | 1 to 10 nM | < 50% | < 50% | – | – |
| CNc1cc(Nc2cccn([C@H]3CCCOC3)c2=O)nc2c(C(=O)N[C@H]3[C@@H]4COC[C@@H]43)cnn12 [I-651] | > 10 nM | < 50% | < 50% | – | – |
| CNc1cc(Nc2cccn(C3CCN(CCC#N)CC3)c2=O)nc2c(C(=O)NC3CC3)cnn12 [I-652, 5-((1-(1-(2-cyanoethyl)piperidin-4-yl)-2-oo-1,2-dihydropyridin-3-yl)amino)-N-cyclopropyl-7-(methylamino)pyrazolo[1,5-a]pyrimidine-3-carboxamide] | < 0.2 nM | < 50% | < 50% | – | – |
| CNc1cc(Nc2cccn(-c3nc(C)co3)c2=O)nc2c(C(=O)N[C@@H]3CC[C@@H]3O)cnn12 [I-654] | < 0.2 nM | < 50% | < 50% | – | – |
| CNc1cc(Nc2cccc(N3CCC4(CCCO4)CC3)n2)nc2c(C(=O)NC3CC3)cnn12 [I-655] | 0.2 to 1 nM | < 50% | < 50% | – | – |
| CNc1cc(Nc2cccc(N3CCC4(CCCO4)CC3)n2)nc2c(C(=O)N[C@H]3C[C@H]3F)cnn12 [I-656] | < 0.2 nM | < 50% | < 50% | – | – |
| CNc1cc(Nc2cccc(N3CCC4(CCCO4)CC3)n2)nc2c(C(=O)N[C@@H]3CC[C@@H]3O)cnn12 [I-657] | < 0.2 nM | < 50% | < 50% | – | – |
| CNc1cc(Nc2cccn3cnnc23)nc2c(C(=O)NC3CC3)cnn12 [I-659] | < 0.2 nM | < 50% | < 50% | – | – |
| CNc1cc(Nc2cccn3cnnc23)nc2c(C(=O)N[C@H]3C[C@H]3F)cnn12 [I-660] | < 0.2 nM | < 50% | < 50% | – | – |
| CNc1cc(Nc2cccn3cnnc23)nc2c(C(=O)N[C@@H]3CC[C@@H]3O)cnn12 [I-662] | < 0.2 nM | < 50% | < 50% | – | – |
| CNc1cc(Nc2cccn(-c3nc(C)co3)c2=O)nc2c(C(=O)NCC(C)CO)cnn12 (stereo not drawn) [I-663] | < 0.2 nM | < 50% | < 50% | – | – |
| CNc1cc(Nc2cccn(-c3cnn(C)c3)c2=O)nc2c(C(=O)NC[C@H](C)CO)cnn12 [I-668] | < 0.2 nM | < 50% | < 50% | – | – |
| CNc1cc(Nc2cccn(-c3cnn(C)c3)c2=O)nc2c(C(=O)NC[C@@H](C)CO)cnn12 [I-669] | < 0.2 nM | < 50% | < 50% | – | – |
| CNc1cc(Nc2cccn([C@@H]3CCCC[C@@H]3O)c2=O)nc2c(C(=O)NC3CC3)cnn12 [I-671] | < 0.2 nM | < 50% | < 50% | – | – |
| CNc1cc(Nc2cccn(-c3ncc(OC)cc3F)c2=O)nc2c(C(=O)NC3CC3)cnn12 [I-672] | < 0.2 nM | < 50% | < 50% | – | – |
| CNc1cc(Nc2cccn(C3CCOCC3)c2=O)nc2c(C(=O)N[C@@H]3COC[C@@H]3O)cnn12 [I-674] | 0.2 to 1 nM | < 50% | < 50% | – | – |
| CNc1cc(-c2cn(CCN3CCOCC3)c3ncccc23)nc2c(C(=O)N[C@@H]3CC[C@@H]3O)cnn12 [I-678] | 0.2 to 1 nM | < 50% | < 50% | – | – |
| CNc1cc(Nc2cccc(N3CCCC3=O)n2)nc2c(C(=O)N[C@@H]3CC[C@@H]3O)cnn12 [I-679] | < 0.2 nM | < 50% | < 50% | – | – |
| CNc1cc(Nc2cccn(-c3ccccn3)c2=O)nc2c(C(=O)NCC(C)CO)cnn12 (stereo not drawn) [I-682] | 0.2 to 1 nM | < 50% | < 50% | – | – |
| CNc1cc(Nc2cccn(-c3ccccn3)c2=O)nc2c(C(=O)NCC(C)(C)CO)cnn12 [I-683, N-(3-hydroxy-2,2-dimethylpropyl)-7-(methylamino)-5-((2-oxo-2H-[1,2′-bipyridin]-3-yl)amino)pyrazolo[1,5-a]pyrimidine-3-carboxamide] | < 0.2 nM | < 50% | < 50% | – | – |
| CNc1cc(Nc2cccn(-c3ccccn3)c2=O)nc2c(C(=O)NCC3(CO)CC3)cnn12 [I-684] | 0.2 to 1 nM | < 50% | < 50% | – | – |
| CNc1cc(Nc2cccn([C@@H]3CCN(C)C[C@H]3F)c2=O)nc2c(C(=O)NC3CC3)cnn12 [I-686] | 0.2 to 1 nM | < 50% | < 50% | – | – |

| Structure (SMILES) | Kd [1] | inhibition at 10 µM (Tyk2 kinase domain (DH1)) | inhibition at 10 µM (JAK2 kinase domain (JH1)) | Tyk2 JH1% Inhibition @ 10 μM (Tyk2 kinase domain (DH1)) | JAK2 JH1% Inhibition @ 10 μM (JAK2 kinase domain (JH1)) |
| --- | --- | --- | --- | --- | --- |
| CNc1cc(Nc2cccn([C@H]3CCN(C)C[C@H]3F)c2=O)nc2c(C(=O)NC3CC3)cnn12 [I-687] | 0.2 to 1 nM | – | – | A (percent inhibition at 10 μM lower than 50) | A (percent inhibition at 10 μM lower than 50) |
| CNc1cc(Nc2cccn([C@@H]3CCN(C)C[C@@H]3F)c2=O)nc2c(C(=O)NC3CC3)cnn12 [I-688] | < 0.2 nM | < 50% | < 50% | – | – |
| CNc1cc(Nc2cccn(C3CCN(C)CC3)c2=O)nc2c(C(=O)N[C@H]3CC[C@H]3O)cnn12 [I-689] | 0.2 to 1 nM | < 50% | < 50% | – | – |
| CNc1cc(Nc2cccn(C3CCN(C)CC3)c2=O)nc2c(C(=O)N[C@@H]3CC[C@@H]3O)cnn12 [I-690] | 1 to 10 nM | – | – | A (percent inhibition at 10 μM lower than 50) | A (percent inhibition at 10 μM lower than 50) |
| CNc1cc(Nc2cccc([C@H]3CCCOC3)n2)nc2c(C(=O)N[C@@H]3COC[C@@H]3O)cnn12 [I-691] | 1 to 10 nM | – | – | A (percent inhibition at 10 μM lower than 50) | A (percent inhibition at 10 μM lower than 50) |
| CNc1cc(Nc2cccc([C@H]3CCCOC3)n2)nc2c(C(=O)N[C@H]3COC[C@H]3O)cnn12 [I-692] | < 0.2 nM | < 50% | < 50% | – | – |
| CNc1cc(Nc2cccc([C@H]3CCCOC3)n2)nc2c(C(=O)NC3COCC3O)cnn12 (stereo partly drawn) [I-695, N-(4-hydroytetrahydrofuran-3-yl)-7-(methylamino)-5-((6-((R)-tetrahydro-2H-pyran-3-yl)pyridin-2-yl)amino)pyrazolo[1,5-a]pyrimidine-3-carboxamide] | < 0.2 nM | < 50% | < 50% | – | – |
| CNc1cc(Nc2cccn([C@H]3CCCOC3)c2=O)nc2c(C(=O)N[C@@H]3CC[C@@H]3O)cnn12 [I-696] | < 0.2 nM | < 50% | < 50% | – | – |
| CNc1cc(Nc2cccn([C@H]3CCCOC3)c2=O)nc2c(C(=O)N[C@H]3CC[C@@H]3O)cnn12 [I-697] | < 0.2 nM | < 50% | < 50% | – | – |
| CNc1cc(Nc2cccn([C@@H]3CCCOC3)c2=O)nc2c(C(=O)N[C@H]3CC[C@@H]3O)cnn12 [I-698] | < 0.2 nM | < 50% | < 50% | – | – |
| CNc1cc(Nc2cccn([C@H]3CCCOC3)c2=O)nc2c(C(=O)NCC3(CO)CC3)cnn12 [I-699] | < 0.2 nM | < 50% | < 50% | – | – |
| CNc1cc(Nc2cccn([C@@H]3CCCOC3)c2=O)nc2c(C(=O)NCC3(CO)CC3)cnn12 [I-700] | 0.2 to 1 nM | < 50% | < 50% | – | – |
| CNc1cc(Nc2cccn([C@@H]3CCCOC3)c2=O)nc2c(C(=O)N[C@H]3CCC[C@H](O)C3)cnn12 [I-703] | < 0.2 nM | < 50% | < 50% | – | – |
| CNc1cc(Nc2cccn(-c3ccccn3)c2=O)nc2c(C(=O)N[C@H]3CC[C@@H]3O)cnn12 [I-705] | < 0.2 nM | < 50% | < 50% | – | – |
| CNc1cc(Nc2cccn(-c3nc(C)co3)c2=O)nc2c(C(=O)N[C@H]3CC[C@H]3O)cnn12 [I-707] | < 0.2 nM | < 50% | < 50% | – | – |
| CNc1cc(Nc2cccc(N3CCC34COC4)n2)nc2c(C(=O)NC3CC3)cnn12 [I-708] | < 0.2 nM | < 50% | < 50% | – | – |
| CNc1cc(Nc2cc(Cl)cn(C3CCOCC3)c2=O)nc2c(C(=O)N[C@@H]3CC[C@@H]3O)cnn12 [I-713] | < 0.2 nM | < 50% | < 50% | – | – |
| CNc1cc(Nc2cccn(-c3cnco3)c2=O)nc2c(C(=O)NC3CC3)cnn12 [I-714] | < 0.2 nM | < 50% | < 50% | – | – |
| CNc1cc(Nc2cccn(-c3cnc(C)o3)c2=O)nc2c(C(=O)NC3CC3)cnn12 [I-717] | < 0.2 nM | < 50% | < 50% | – | – |
| CNc1cc(Nc2cccn(-c3cnn(C)c3F)c2=O)nc2c(C(=O)N[C@H]3C[C@H]3F)cnn12 [I-719] | < 0.2 nM | < 50% | < 50% | – | – |
| CNc1cc(Nc2cccc(N3CCC4(CCCO4)CC3)n2)nc2c(C(=O)N[C@@H]3CC[C@@H]3O)cnn12 [I-720] | 1 to 10 nM | – | – | A (percent inhibition at 10 μM lower than 50) | A (percent inhibition at 10 μM lower than 50) |
| CNc1cc(Nc2cccc(N3CCC4(CCCO4)CC3)n2)nc2c(C(=O)N[C@H]3CC[C@H]3O)cnn12 [I-721] | < 0.2 nM | < 50% | < 50% | – | – |
